Measurements: patent US12227516B1, “Selective COX-2 inhibition of 2-(substituted benzyl)-3,5,6,7-tetrahydro-4H-cyclopenta[4,5]thieno[2,3-d]pyrimidin-4-ones and 4-fluoro-n-(4-oxo-3,5,6,7-tetrahydro-4H-cyclopenta[4,5]thieno[2,3-d]pyrimidin-2-yl)benzamide as anti-inflammatory agents” (KING FAISAL UNIVERSITY, priority 2023, dated 2025)

Columns and labels:
[1] = target: T1, ovine COX-1 (Ovis aries, UniProt P05979); test: COX (ovine) Inhibitor Screening Assay, COX-1; format: biochemical; conditions: PGF2α by EIA, 18 hours of incubation
T1 sequence (P05979 25-600): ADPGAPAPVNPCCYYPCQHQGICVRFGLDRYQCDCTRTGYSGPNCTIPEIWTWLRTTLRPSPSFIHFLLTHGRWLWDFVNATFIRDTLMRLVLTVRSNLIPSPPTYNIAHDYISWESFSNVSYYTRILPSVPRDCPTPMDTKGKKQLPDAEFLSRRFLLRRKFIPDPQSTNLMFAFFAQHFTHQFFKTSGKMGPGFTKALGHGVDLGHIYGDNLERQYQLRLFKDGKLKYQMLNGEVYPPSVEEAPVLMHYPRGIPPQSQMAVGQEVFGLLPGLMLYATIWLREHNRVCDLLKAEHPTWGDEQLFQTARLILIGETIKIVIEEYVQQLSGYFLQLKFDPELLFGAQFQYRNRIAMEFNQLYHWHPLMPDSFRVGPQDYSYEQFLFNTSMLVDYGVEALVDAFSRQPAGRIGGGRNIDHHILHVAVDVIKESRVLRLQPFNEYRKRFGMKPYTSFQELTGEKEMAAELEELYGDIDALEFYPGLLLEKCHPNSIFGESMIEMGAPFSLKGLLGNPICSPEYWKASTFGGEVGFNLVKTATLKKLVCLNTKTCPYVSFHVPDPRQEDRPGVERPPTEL
Method: (§1) The COX (ovine) Inhibitor Screening Assay was performed mainly to determine the selective inhibition of tested compounds (6, 7, 8 and 9) towards the ovine COX-1 and human recombinant COX-2 isoenzymes. Adding arachidonic acid (AA) helped convert the COX component into PGG2, followed by a reduction of PGG2 into PGH2. The following addition of SnCl2 converted PGH2 into PGF2α. The assay directly measures the PGF2α via enzyme immunoassay (EIA) using a broadly specific antiserum that is bound to all PG tracers. Depending on the tested compounds inhibitory effect, the concentration of PGF2α in each well varied and was inversely proportional to the amount of PG tracers that were able to bind to the antiserum. PG tracers-antiserum complex was left to bind to the mouse monoclonal anti-rabbit antibody that had been coated to the well during the 18 hours of incubation. Ellman's reagent was added to give distinct yellow coloration to the products from this enzymatic reaction, which absorbed strongly at 412 nm. The intensity of the color was proportional to the amount of PG tracers-antiserum complex bound to the well, which was inversely proportional to the concentration of PGF2α present.
(§2) The inhibitory activity of tested compounds was determined based on IC50 values, whereas the selectivity was based on their selectivity indices (SI), which are defined as COX-1 IC50/COX-2 IC50. In the assay system, indomethacin was used as a non-selective COX inhibitor standard, while NS-398 was used as a COX-2 selective inhibitor standard.

[2] = target: T2, human recombinant COX-2 (Homo sapiens, UniProt P35354); test: COX (ovine) Inhibitor Screening Assay, COX-2; format: biochemical; conditions: for IC50: human recombinant COX-2, PGF2α by EIA, 18 hours of incubation; for selectivity of inhibition, COX-2 versus COX-1, in words: ovine COX-1 versus human recombinant COX-2
T2 sequence (P35354 18-604): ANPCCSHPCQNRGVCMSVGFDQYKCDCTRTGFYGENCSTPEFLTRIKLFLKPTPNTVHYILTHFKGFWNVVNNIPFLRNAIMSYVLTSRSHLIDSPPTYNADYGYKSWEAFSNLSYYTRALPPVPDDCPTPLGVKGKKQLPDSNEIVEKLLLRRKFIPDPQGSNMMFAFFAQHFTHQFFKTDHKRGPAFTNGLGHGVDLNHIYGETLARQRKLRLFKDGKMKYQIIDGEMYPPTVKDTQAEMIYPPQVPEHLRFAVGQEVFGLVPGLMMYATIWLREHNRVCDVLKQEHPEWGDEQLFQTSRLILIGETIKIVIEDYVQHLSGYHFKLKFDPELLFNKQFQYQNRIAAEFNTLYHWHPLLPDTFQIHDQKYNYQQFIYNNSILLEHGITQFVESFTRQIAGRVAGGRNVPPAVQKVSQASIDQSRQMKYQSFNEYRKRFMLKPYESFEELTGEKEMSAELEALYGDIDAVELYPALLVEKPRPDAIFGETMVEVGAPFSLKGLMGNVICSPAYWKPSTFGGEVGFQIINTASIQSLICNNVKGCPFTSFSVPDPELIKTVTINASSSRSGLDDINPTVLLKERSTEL
Method: as §1, §2

| IC50 [1] [µM] | SI (selectivity index, COX-1 IC50/COX-2 IC50) [2] | IC50 [2] [µM] | selectivity of inhibition, COX-2 versus COX-1, in words [2] | SMILES |
| --- | --- | --- | --- | --- |
| 38.5 | 0.68 | 56.4 | mild selective inhibition against COX-2 | O=c1[nH]c(Cc2ccc(F)cc2)nc2sc3c(c12)CCC3 [Compound 6, 2-(4-Fluorobenzyl)-3,5,6,7-tetrahydro-4H-cyclopenta[4,5]thieno[2,3-d]pyrimidin-4-one] |
| 224 | 6.98 | 32.1 | mild selective inhibition against COX-2 | COc1ccc(Cc2nc3sc4c(c3c(=O)[nH]2)CCC4)cc1 [Compound 7, 2-(4-Methoxybenzyl)-3,5,6,7-tetrahydro-4H-cyclopenta[4,5]thieno[2,3-d]pyrimidin-4-one] |
| 83.8 | 11.41 | 7.3 | mild selective inhibition against COX-2 | COc1ccc(-c2nc3sc4c(c3c(=O)[nH]2)CCC4)cc1 [Compound 8, 2-(4-Methoxyphenyl)-3,5,6,7-tetrahydro-4H-cyclopenta[4,5]thieno[2,3-d]pyrimidin-4-one] |
| 69.2 | 1.26 | 54.9 | mild selective inhibition against COX-2 | O=C(Nc1nc2sc3c(c2c(=O)[nH]1)CCC3)c1ccc(F)cc1 [Compound 9, 4-Fluoro-N-(4-oxo-3,5,6,7-tetrahydro-4H-cyclopenta[4,5]thieno[2,3-d]pyrimidin-2-yl)benzamide] |
